Patent US20220411525A1, “BCMA AS A TARGET FOR T CELL REDIRECTING ANTIBODIES IN B CELL LYMPHOMAS” (Janssen Pharmaceutica NV, priority 2021, published 2022)
Where “and” joins values, the source holds several entries; their conditions need not be identical. Identical values can stand only once.

Tests used:
[1] = test system: primary CLL cells; assay: Cytotoxicity assay, primary CLL cells co-cultured with healthy donor T cells; format: cell-based, human; details: for average lysis of CLL cells: 48 h; for average lysis of CLL cells / average cell death of CLL cells: 10:1 E:T, per T cell donor; for average cell death of CLL cells: 96h
Experimental: Since primary CLL samples express BCMA at even lower levels compared to JeKo-1 cell lines, the present inventors explored whether this expression level was still high enough to induce effective lysis of CLL cells. To assess this HD T cells were co-cultured for 48-96 h with primary CLL cells in the presence of 100 ng/mL of Teclistamab with or without 100 nM γ-secretase inhibitor.
FIGS. 5A-5C illustrate how healthy donor T cells kill primary CLL cells in presence of BCMAxCD3 DuoBody, which is largely dependent on CD8^+ T cells. Measurement of cytotoxicity after PBMCs of healthy donors were left unstimulated or stimulated with 100 ng/mL BCMAxCD3 DuoBody®, in the absence (−) or presence (+) of 100 nM γ-secretase inhibitor. PBMCs were T cells were co-cultured with primary CLL in a 10:1 E:T ratio for (FIG. 5A) 48 h or (FIG. 5B) 96 h. […] (n=8) The P value was calculated by Wilcoxon test (FIG. 5A), paired t test (FIG. 5B) or repeated measures one-way ANOVA (FIG. 5C). Data are presented as mean±SD. *P<0.05; **P<0.01; ***P<0.001.
Cytotoxicity assay. Cell lines or primary CLL samples were labelled with Cell Trace Violet (CTV, Thermo Fisher Scientific) or carboxyfluorescein diacetate succinimidyl ester (CFSE, ThermoFisher Scientific) according to manufacturer's instructions and co-cultured with healthy donor PBMCs or CLL derived (autologous) T cells in different effector-target (E:T) ratios. Where indicated prior to co-culture CD4 and CD8 T cells were isolated using MACS beads (Miltenyi), according to manufacturer's instructions. Co-cultures were in the presence of 100 ng/mL BCMAxCD3, BCMAxnull or nullxCD3. 100nM γ-secretase inhibitor (Ly411575) was added where indicated. Viability of the target cells was assessed using TO-PRO-3 (Invitrogen) and MitoTracker Orange (Invitrogen) using Flow Cytometry. Specific lysis of target cells was calculated as (% target cell death in treated sample—% cell death target cells in medium control)/(100—% cell death target cells in medium control)*100%. Samples were excluded when cell death in medium controls exceeded 50%.

[2] = test system: CLL derived T cells; assay: Activation and degranulation of CLL derived T cells in CLL PBMCs; format: cell-based, human; details: 96 h
Experimental: (§1) It was also assessed whether Teclistamab would induce activation and cytotoxicity of CLL derived T cells. To assess activation and degranulation, full PBMCs of CLL patients were treated with 100 ng/mL Teclistamab or control BsAbs for 96 h with or without presence of γ-secretase inhibition. […] For FIGS. 6A-6, CLL PBMCs were stimulated with 100 ng/mL BCMAxCD3, BCMAxnull, nullxCD3 or anti-CD3/CD28 antibodies. Flow cytometry analysis of (FIG. 6A) CD25 and (FIG. 6B) CD107a were performed after 4 days (n=3-5). For FIG. 6C, T cells from CLL patients were isolated and co-cultured in a 5:1 E:T ratio with their autologous CLL for 96 h in the presence or absence of 100 ng/mL BCMAxCD3 DuoBody and were left untreated (−) or treated with 100 nM γ-secretase inhibitor (+). (n=6) The P value was calculated ordinary one-way ANOVA (FIGS. 6A-6B) or paired t test (FIG. 6C). Data are presented as mean±SD. *P<0.05; **P<0.01; ***P<0.001; ****P<0.0001.
(§2) Activation, cytokine production and degranulation. PBMCs from HD or CLL patients were incubated in the presence of 100 ng/mL BCMAxCD3, BCMAxnull or nullxCD3 or stimulated with CD3 (clone 1XE) and CD28 (clone 15E8) antibodies for 2 days. Where indicated HD PBMCs were co-cultured in a 1:1 E:T ratio with RPMI-8226, JeKo-1, CII or BCWM1. 100 nM γ-secretase inhibitor (Ly411575) was added where indicated. […]

[3] = test system: T cells of healthy donor PBMCs; assay: T cell proliferation of healthy donor PBMCs co-cultured with cell lines; format: cell-based, human; details: co-culture of HD T cells with B cell malignancy cell lines, 4 days
Experimental: (§3) FIGS. 4A-4G provide the results of the assessment, which are that BCMAxCD3 DuoBody® induces activation, degranulation, cytokine secretion and cytotoxicity by T cells in the presence of B cell malignancy cell lines. PBMCs of healthy donors were left unstimulated or stimulated with 100 ng/mL BCMAxCD3 DuoBody®, BCMAxnull, nullxCD3 or anti-CD3/CD28 antibodies. Cells were left untreated (−) or treated with 100nM γ-secretase inhibitor (+). T cells were co-cultured with cell lines RPMI-8226 (multiple myeloma), JeKo-1 (mantle cell lymphoma), BCWM.1 (Waldenstrom's macroglobulinemia) or CII (chronic lymphocytic leukemia) in a 1:1 E:T ratio. After 48 hours activation by CD25 (FIG. 4A), degranulation (FIG. 4B), secretion of IFNy (FIG. 4D), IL-2 (FIG. 4E), TNFα (FIG. 4F), and cytotoxicity (FIG. 4G) were measured by flow cytometry (n=3-14). 4 days after incubation T cell proliferation was assessed by FACS (FIG. 4C) (n=3-9).
T cell proliferation. PBMCs from HD patients were labelled with CTV and cultured alone or in 1:1 E:T ratio with RPMI-8226, JeKo-1, CII or BCWM1. PBMCs were incubated in the presence of 100 ng/mL BCMAxCD3, BCMAxnull or nullxCD3 or stimulated with CD3 (clone 1XE) and CD28 (clone 15E8) antibodies. 100 nM γ-secretase inhibitor (Ly411575) was added where indicated. After 4 days proliferation was measured by flow cytometry as described above.

[4] = test system: autologous CLL cells; assay: Cytotoxicity assay, CLL derived T cells co-cultured with autologous CLL cells; format: cell-based, human; details: 96 h, 5:1 E:T
Experimental: as §1
(§4) Cytotoxicity assay. […] Viability of the target cells was assessed using TO-PRO-3 (Invitrogen) and MitoTracker Orange (Invitrogen) using Flow Cytometry. Specific lysis of target cells was calculated as (% target cell death in treated sample—% cell death target cells in medium control)/(100—% cell death target cells in medium control)*100%. […]

[5] = test system: T cells of healthy donor PBMCs; assay: Activation, degranulation and cytokine production of healthy donor T cells co-cultured with B cell malignancy cell lines; format: cell-based, human
Experimental: (§5) Since the different B cell malignancy cell lines express BCMA to different extents, it was explored whether co-culture of these cell lines with the BCMAxCD3 BsAb Teclistamab in presence of HD PBMCs would lead to activation of T cells. To assess this, 4 cell lines were selected based on previously determined BCMA levels: RPMI-8226 (MM, positive control; high BCMA), BCWM.1 (WM, high BCMA), CII (CLL, intermediate BCMA) and JeKo-1 (MCL, low BCMA). Cell lines and age-matched HD PBMCs were cultured in presence of 100 ng/mL Teclistamab or the control BsAbs (BCMAxnull or nullxCD3) with or without 100 nM γ-secretase inhibitor. As a positive control, anti-CD3/CD28 antibodies were added to the co-cultures to induce TCR stimulation.
as §3, §2

[6] = test system: B cell malignancy cell lines (RPMI-8226, JeKo-1, BCWM.1, CII); assay: Cytotoxicity assay, cell lines co-cultured with healthy donor PBMCs; format: cell-based
Experimental: as §5, §3, §4

[7] = 100 ng/mL, no γ-secretase inhibitor
[8] = 100 ng/mL, with 100 nM γ-secretase inhibitor
[9] = 100 ng/mL plus 100 nM γ-secretase inhibitor

“Teclistamab: BCMAxCD3 bispecific antibody developed with Genmab DuoBody technology, provided by Janssen Pharmaceuticals” was tested, and the “average lysis of CLL cells” value [1, 7] was 12.9% and 16.4%, the “average lysis of CLL cells” value [1, 8] was 14.9% and 21.6% and the “killing by HD CD4+ T cells” value ([1]; 100 ng/mL, 96 h, 5:1 E:T, CD4+ T cells only) was “not able to induce killing”. The “lysis by HD CD8+ T cells” value ([1]; 100 ng/mL, 96 h, 5:1 E:T, CD8+ T cells) was “up to 60%”, the “average cell death of CLL cells” value [1, 7] was 15.8% and 20% and the “average cell death of CLL cells” value [1, 8] was 25,8% and 27.4%. The “lysis of CLL cells by healthy donor T cells” value ([1]; summary statement, in presence of teclistamab) was “up to 40%”, the “CD25 activation in T cells of CLL patients upon addition of γ-secretase inhibitor” value ([2]; 100 ng/mL plus γ-secretase inhibitor) was “enhanced” and the “CD25 activation in CD4+ and CD8+ T cells of CLL patients” value ([2]; 100 ng/mL, CLL PBMCs) was “trend towards increased CD25 activation”. The T cell proliferation [3] was “resulted in T cell activation, proliferation and cytotoxicity”, the “lysis of autologous CLL cells upon addition of γ-secretase inhibition” value [4, 9] was “slightly increased” and the “mean lysis of autologous CLL cells” value [4, 7] was 40%. The “T cell activation and proliferation upon increasing BCMA levels by γ-secretase inhibition” value [5, 9] was “not further enhanced”, the “activation marker CD25 on CD4+ and CD8+ T cells” value ([5]; 100 ng/mL, 2 days co-culture with cell lines, 1:1 E:T) was “upregulation of the activation marker CD25” and the “CD25 on T cells, PBMCs cultured without a target cell” value ([5]; 100 ng/mL, no target cell) was “did not lead to upregulation of CD25”. The “cytotoxicity upon addition of γ-secretase inhibitor” value [6, 9] was “did not improve”, the “lysis of JeKo-1 compared to BCWM.1 or CII cell lines” value ([6]; 100 ng/mL, JeKo-1 (low BCMA)) was “more efficiently lysed” and the “cell death of target cells” value ([6]; 100 ng/mL, co-culture with HD T cells, 1:1 E:T, 48 hours) was “induced cell death of target cells”.
